Laboratory results from ChEMBL document CHEMBL1909046, “DrugMatrix in vitro pharmacology data”.

How the values were obtained:
[1] = molecular target: 5-hydroxytryptamine receptor 2B (Homo sapiens, UniProt P41595); type: cell membranes, CHO-K1, Membrane; conditions: cho-k1; further: in other assays of this panel Not Active means under 50% inhibition at 10 µM
[2] = DRUGMATRIX: GABAA, Chloride Channel, TBOB radioligand binding (ligand: [3H] TBOB); type: cell membranes, Rattus norvegicus, Wistar, Cerebral cortex, Membrane; conditions: Not Active = under 50% inhibition at 10 µM
[3] = molecular target: Platelet-activating factor receptor (Homo sapiens, UniProt P25105); type: tissue-based; further: in other assays of this panel Not Active means under 50% inhibition at 10 µM
Glycine receptor = Glycine receptor (Rattus norvegicus, UniProt P22771+P24524+P07727+P20781); type: cell membranes, Wistar, Spinal cord, Membrane; further: in other assays of this panel Not Active means under 50% inhibition at 10 µM
Interstitial collagenase = molecular target: T1, Interstitial collagenase (Homo sapiens, UniProt P03956); test: biochemical; type: tissue-based, Rheumatoid synovial fibroblasts;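 further: MMP-1 enzyme inhibition assay using a peptide substrate; in other assays of this panel Not Active means under 50% inhibition at 10 µM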
T1 sequence (P03956 whole entry): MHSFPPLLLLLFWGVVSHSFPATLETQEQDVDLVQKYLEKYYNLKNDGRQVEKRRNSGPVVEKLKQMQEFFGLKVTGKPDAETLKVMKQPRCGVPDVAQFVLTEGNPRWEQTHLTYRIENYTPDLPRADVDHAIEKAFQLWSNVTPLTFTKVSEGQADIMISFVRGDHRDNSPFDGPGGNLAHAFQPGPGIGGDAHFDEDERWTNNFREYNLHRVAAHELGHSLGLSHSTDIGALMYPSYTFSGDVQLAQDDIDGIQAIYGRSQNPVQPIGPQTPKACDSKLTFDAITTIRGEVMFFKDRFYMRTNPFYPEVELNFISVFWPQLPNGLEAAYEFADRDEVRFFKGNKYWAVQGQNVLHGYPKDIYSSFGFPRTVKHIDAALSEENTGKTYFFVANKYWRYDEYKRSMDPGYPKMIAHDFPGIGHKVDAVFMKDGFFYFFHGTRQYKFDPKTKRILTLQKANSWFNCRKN

[4] = DRUGMATRIX: Glutamate, NMDA, Phencyclidine radioligand binding (ligand: [3H] TCP); type: cell membranes, Rattus norvegicus, Wistar, Cerebral cortex, Membrane; conditions: Not Active = under 50% inhibition at 10 µM
Vasopressin V1a receptor = Vasopressin V1a receptor (Homo sapiens, UniProt P37288); type: cell membranes, Membrane; conditions: hek293; further: in other assays of this panel Not Active means under 50% inhibition at 10 µM
Vasopressin V1a receptor, sequence (P37288 whole entry): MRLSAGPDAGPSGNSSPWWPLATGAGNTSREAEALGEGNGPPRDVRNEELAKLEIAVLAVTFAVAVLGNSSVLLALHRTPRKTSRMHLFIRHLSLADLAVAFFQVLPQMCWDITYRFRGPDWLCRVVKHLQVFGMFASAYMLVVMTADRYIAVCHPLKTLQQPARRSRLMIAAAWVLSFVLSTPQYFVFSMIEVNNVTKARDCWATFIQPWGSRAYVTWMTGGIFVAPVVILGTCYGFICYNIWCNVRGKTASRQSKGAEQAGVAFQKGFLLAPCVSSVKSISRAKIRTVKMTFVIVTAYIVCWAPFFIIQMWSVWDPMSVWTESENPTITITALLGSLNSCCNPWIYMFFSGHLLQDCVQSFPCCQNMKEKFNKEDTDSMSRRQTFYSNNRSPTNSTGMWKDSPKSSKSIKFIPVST

Platelet-activating factor receptor, sequence (P25105 whole entry): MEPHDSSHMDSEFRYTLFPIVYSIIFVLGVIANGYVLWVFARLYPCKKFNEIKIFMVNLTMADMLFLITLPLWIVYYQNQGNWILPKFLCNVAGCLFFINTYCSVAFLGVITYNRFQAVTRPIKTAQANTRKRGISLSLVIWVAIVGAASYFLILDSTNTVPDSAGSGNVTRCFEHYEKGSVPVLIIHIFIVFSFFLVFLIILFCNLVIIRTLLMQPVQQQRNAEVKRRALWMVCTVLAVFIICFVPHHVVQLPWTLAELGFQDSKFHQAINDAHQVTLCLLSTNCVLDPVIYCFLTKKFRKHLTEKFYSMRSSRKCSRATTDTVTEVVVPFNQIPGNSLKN
5-hydroxytryptamine receptor 2B, sequence (P41595 whole entry): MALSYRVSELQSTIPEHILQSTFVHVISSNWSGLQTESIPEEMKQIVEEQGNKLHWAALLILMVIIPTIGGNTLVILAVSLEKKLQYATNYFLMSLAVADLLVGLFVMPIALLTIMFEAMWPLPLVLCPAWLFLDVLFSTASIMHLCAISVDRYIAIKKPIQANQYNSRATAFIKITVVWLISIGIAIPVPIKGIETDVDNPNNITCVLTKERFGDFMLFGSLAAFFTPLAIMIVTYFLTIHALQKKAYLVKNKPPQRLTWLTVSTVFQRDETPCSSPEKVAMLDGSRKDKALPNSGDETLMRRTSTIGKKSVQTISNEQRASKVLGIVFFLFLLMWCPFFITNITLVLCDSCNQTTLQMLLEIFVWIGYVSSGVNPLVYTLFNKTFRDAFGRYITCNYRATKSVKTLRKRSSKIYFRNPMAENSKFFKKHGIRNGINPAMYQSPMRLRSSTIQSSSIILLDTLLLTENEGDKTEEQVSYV

CC(O)CO (stereo unspecified) [PROPYLENE GLYCOL]
Not Active: IC50 [1] | IC50 [2] | Ki [2] | IC50 [3] | IC50 (Glycine receptor) | IC50 (Interstitial collagenase) | IC50 [4] | Ki [4] | IC50 (Vasopressin V1a receptor)

CADMIUM ACETATE
Not Active: IC50 [1] | Ki [1] | IC50 [2] | Ki [2] | IC50 [3] | Ki [3] | IC50 (Glycine receptor) | Ki (Glycine receptor) | IC50 (Interstitial collagenase) | Ki (Interstitial collagenase) | IC50 [4] | Ki [4] | IC50 (Vasopressin V1a receptor) | Ki (Vasopressin V1a receptor)

LEAD (II) ACETATE
Not Active: IC50 [1] | Ki [1] | IC50 [2] | Ki [2] | IC50 [3] | Ki [3] | IC50 (Glycine receptor) | Ki (Glycine receptor) | IC50 (Interstitial collagenase) | Ki (Interstitial collagenase) | IC50 [4] | Ki [4] | IC50 (Vasopressin V1a receptor) | Ki (Vasopressin V1a receptor)

LIPOPOLYSACCHARIDE E. COLI O55:B5
Not Active: IC50 [1] | Ki [1] | IC50 [2] | Ki [2] | IC50 [3] | Ki [3] | IC50 (Glycine receptor) | Ki (Glycine receptor) | IC50 (Interstitial collagenase) | Ki (Interstitial collagenase) | IC50 [4] | Ki [4] | IC50 (Vasopressin V1a receptor) | Ki (Vasopressin V1a receptor)
